Source: the supplement of paper PMC10307832

What was measured:
Assay in all cases: relative viability (nuclei count vs DMSO), 5 days (fraction); higher = more cells survive
[1] = tested on: HCC-44
Procedure, shortened: (§1)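 Medians of duplicate plates are given as relative viability. That measure is the nuclei count in treated wells divided by the count in vehicle wells. Counts were taken on 4× images of lung cancer cell lines in 1536-well plates, 5 days after pin-tool dosing the day after seeding with one drug alone or a fixed anchor-drug dose plus five library-drug doses (not always all listed) in √10 steps.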

[2] = tested on: COR-L23
Procedure, shortened: as §1

[3] = tested on: NCI-H2023
Procedure, shortened: as §1

[4] = tested on: NCI-H1944
Procedure, shortened: as §1

[5] = tested on: NCI-H650
Procedure, shortened: as §1

[6] = tested on: ChaGo-K-1
Procedure, shortened: as §1

[7] = tested on: NCI-H838
Procedure, shortened: as §1

[8] = tested on: NCI-H2087
Procedure, shortened: as §1

[9] = tested on: NCI-H1651
Procedure, shortened: as §1

[10] = tested on: EPLC-272H
Procedure, shortened: as §1

[11] = tested on: H3255
Procedure, shortened: as §1

[12] = tested on: NCI-H2405
Procedure, shortened: as §1

[13] = tested on: NCI-H1563
Procedure, shortened: as §1

[14] = tested on: LCLC-103H
Procedure, shortened: as §1

[15] = tested on: HCC-827
Procedure, shortened: as §1

[16] = tested on: EMC-BAC-2
Procedure, shortened: as §1

[17] = tested on: NCI-H2085
Procedure, shortened: as §1

[18] = tested on: NCI-H520
Procedure, shortened: as §1

[19] = tested on: SK-MES-1
Procedure, shortened: as §1

[20] = tested on: LU99A
Procedure, shortened: as §1

## Cc1sc2c(c1C)C(c1ccc(Cl)cc1)=N[C@@H](CC(=O)OC(C)(C)C)c1nnc(C)n1-2 [JQ1] + C[C@@H](Oc1cc(-c2cnn(C3CCNCC3)c2)cnc1N)c1c(Cl)ccc(F)c1Cl [Crizotinib] (partner 1 µM)
[1]; first compound 0.04 µM
  relative viability: 0.822
[1]; first compound 0.1265 µM
  relative viability: 0.623
[1]; first compound 0.4 µM
  relative viability: 0.397
[1]; first compound 1.265 µM
  relative viability: 0.277
[1]; first compound 4 µM
  relative viability: 0.243
[2]; first compound 0.04 µM
  relative viability: 0.608
[2]; first compound 0.1265 µM
  relative viability: 0.381
[2]; first compound 0.4 µM
  relative viability: 0.46
[2]; first compound 1.265 µM
  relative viability: 0.248
[2]; first compound 4 µM
  relative viability: 0.12
[3]; first compound 0.04 µM
  relative viability: 0.544
[3]; first compound 0.1265 µM
  relative viability: 0.543
[3]; first compound 0.4 µM
  relative viability: 0.485
[3]; first compound 1.265 µM
  relative viability: 0.227
[3]; first compound 4 µM
  relative viability: 0.158
[4]; first compound 0.04 µM
  relative viability: 1.02
[4]; first compound 0.1265 µM
  relative viability: 0.905
[4]; first compound 0.4 µM
  relative viability: 0.719
[4]; first compound 1.265 µM
  relative viability: 0.574
[4]; first compound 4 µM
  relative viability: 0.447
[5]; first compound 0.04 µM
  relative viability: 0.7
[5]; first compound 0.1265 µM
  relative viability: 0.445
[5]; first compound 0.4 µM
  relative viability: 0.343
[5]; first compound 1.265 µM
  relative viability: 0.174
[5]; first compound 4 µM
  relative viability: 0.195
[6]; first compound 0.04 µM
  relative viability: 1.04
[6]; first compound 0.4 µM
  relative viability: 0.689
[6]; first compound 1.265 µM
  relative viability: 0.513
[6]; first compound 4 µM
  relative viability: 0.387
[7]; first compound 0.04 µM
  relative viability: 0.814
[7]; first compound 0.1265 µM
  relative viability: 0.546
[7]; first compound 0.4 µM
  relative viability: 0.415
[7]; first compound 1.265 µM
  relative viability: 0.27
[7]; first compound 4 µM
  relative viability: 0.172
[8]; first compound 0.04 µM
  relative viability: 0.901
[8]; first compound 0.4 µM
  relative viability: 0.862
[8]; first compound 1.265 µM
  relative viability: 0.602
[8]; first compound 4 µM
  relative viability: 0.344
[9]; first compound 0.04 µM
  relative viability: 0.795
[9]; first compound 0.1265 µM
  relative viability: 0.784
[9]; first compound 0.4 µM
  relative viability: 0.701
[9]; first compound 1.265 µM
  relative viability: 0.639
[9]; first compound 4 µM
  relative viability: 0.548
[10]; first compound 0.04 µM
  relative viability: 0.904
[10]; first compound 0.1265 µM
  relative viability: 0.759
[10]; first compound 0.4 µM
  relative viability: 0.885
[10]; first compound 1.265 µM
  relative viability: 0.364
[10]; first compound 4 µM
  relative viability: 0.37
[11]; first compound 0.04 µM
  relative viability: 0.828
[11]; first compound 0.1265 µM
  relative viability: 0.715
[11]; first compound 0.4 µM
  relative viability: 0.741
[11]; first compound 1.265 µM
  relative viability: 0.316
[11]; first compound 4 µM
  relative viability: 0.221
[12]; first compound 0.04 µM
  relative viability: 0.829
[12]; first compound 0.1265 µM
  relative viability: 0.711
[12]; first compound 0.4 µM
  relative viability: 0.749
[12]; first compound 1.265 µM
  relative viability: 0.555
[12]; first compound 4 µM
  relative viability: 0.395
[13]; first compound 0.04 µM
  relative viability: 0.839
[13]; first compound 0.1265 µM
  relative viability: 0.764
[13]; first compound 0.4 µM
  relative viability: 0.881
[13]; first compound 1.265 µM
  relative viability: 0.631
[13]; first compound 4 µM
  relative viability: 0.615
[14]; first compound 0.04 µM
  relative viability: 1
[14]; first compound 0.1265 µM
  relative viability: 0.94
[14]; first compound 0.4 µM
  relative viability: 0.847
[14]; first compound 1.265 µM
  relative viability: 0.612
[14]; first compound 4 µM
  relative viability: 0.506
[15]; first compound 0.04 µM
  relative viability: 1.01
[15]; first compound 0.4 µM
  relative viability: 0.663
[15]; first compound 1.265 µM
  relative viability: 0.672
[15]; first compound 4 µM
  relative viability: 0.668
[16]; first compound 0.04 µM
  relative viability: 0.737
[16]; first compound 0.1265 µM
  relative viability: 0.651
[16]; first compound 0.4 µM
  relative viability: 0.504
[16]; first compound 1.265 µM
  relative viability: 0.43
[16]; first compound 4 µM
  relative viability: 0.315
[17]; first compound 0.04 µM
  relative viability: 0.745
[17]; first compound 0.1265 µM
  relative viability: 0.629
[17]; first compound 0.4 µM
  relative viability: 0.651
[17]; first compound 1.265 µM
  relative viability: 0.458
[17]; first compound 4 µM
  relative viability: 0.448
[18]; first compound 0.04 µM
  relative viability: 0.97
[18]; first compound 0.1265 µM
  relative viability: 0.997
[18]; first compound 0.4 µM
  relative viability: 0.578
[18]; first compound 1.265 µM
  relative viability: 0.368
[18]; first compound 4 µM
  relative viability: 0.166
[19]; first compound 0.04 µM
  relative viability: 0.873
[19]; first compound 0.1265 µM
  relative viability: 0.77
[19]; first compound 0.4 µM
  relative viability: 0.672
[19]; first compound 1.265 µM
  relative viability: 0.467
[19]; first compound 4 µM
  relative viability: 0.295
[20]; first compound 0.04 µM
  relative viability: 0.554
[20]; first compound 0.1265 µM
  relative viability: 0.533
[20]; first compound 0.4 µM
  relative viability: 0.278
[20]; first compound 1.265 µM
  relative viability: 0.231
[20]; first compound 4 µM
  relative viability: 0.198
